Assay results: the METLIN SMRT retention time set (Domingo-Almenara et al. 2019)

Test: gradient 5% acetonitrile 3 min, to 50% in 2 min, to 85% in 15 min, held 3 min, 100 µL/min
Details: column: Zorbax Extend-C18 2.1 x 50 mm; eluents: water / acetonitrile, 0.1% formic acid
Summary of the method: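 Pure standards were run in mixtures of ~100 molecules by HPLC coupled to a quadrupole time-of-flight mass spectrometer. The column was a Zorbax Extend-C18 (2.1 × 50 mm, 1.8 μm) at 100 μL/min, with water and acetonitrile each containing 0.1% formic acid, in positive and negative ionization mode. Dead and dwell volumes were 40 μL and 900 μL. Retention time was taken from computationally picked adduct peaks, each manually inspected, with data collected over 3 months.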

Row | SMILES | RP-LC retention time
1 | Cc1ccc(N2CCN(C(=O)C3CC(=O)N(c4cccc(NC(=O)C(C)C)c4)C3)CC2)cc1 (stereo not given) | 802 s
2 | CCC(C)C(=O)NCCc1c[nH]c2cc(OC)ccc12 (stereo not given) | 728 s
3 | COc1cccc(CNc2ncccc2-c2nnc(-c3ccccc3)o2)c1 | 1170 s
4 | Cc1cc(C)c(CNC(=O)c2nnc(-c3ccc(S(=O)(=O)N(C)C)cc3)o2)c(C)c1 | 1010 s
5 | COC(=O)c1ccc(C(=O)NCC2CCS(=O)(=O)C2)cc1 (stereo not given) | 620 s
6 | Fc1ccc(-c2ccnc3nc(-c4ccccc4)nn23)cc1 | 949 s
7 | CCOc1nc2ccccc2nc1N1CCCC(C(=O)N2CCOCC2)C1 (stereo not given) | 983 s
8 | CC(C)c1cc(=O)n(CC(=O)NCCn2nc(-c3cccs3)ccc2=O)cn1 | 619 s
9 | CCc1ccc(C(=O)Nc2cc(-c3ccn[nH]3)sc2C)cc1 | 1120 s
10 | CCn1cnc(S(=O)(=O)N2CCCC(C(=O)Nc3ccc(F)cc3C)C2)c1 (stereo not given) | 726 s
11 | COc1ccc2cc(C(=O)NCCC(=O)NCCc3c[nH]c4ccccc34)[nH]c2c1 | 775 s
12 | COc1ccc(-c2csc(CN3CCN(C(=O)c4c(F)cccc4Cl)CC3)n2)cc1 | 805 s
13 | O=C(NCc1ccccc1F)c1ccc2c(c1)CN(Cc1cccc(F)c1)CCO2 | 675 s
14 | O=C1Nc2ccccc2/C1=C\c1cnc[nH]1 | 617 s
15 | CCOC(=O)c1ccccc1NC(=O)C1CCCN(c2ncnc3c2nc2n3CCCCC2)C1 (stereo not given) | 876 s
16 | CCN(CC)CCCNC(=O)C1CCN(c2nc3cccnc3s2)CC1 | 570 s
17 | CCOC(=O)Cc1csc(NC(=O)Cn2nc3c(cc2=O)CCCC3)n1 | 718 s
18 | CCC1(CC)NC(=O)N(CC(=O)Nc2ccc(F)cc2F)C1=O | 677 s
19 | O=C(NCCC1CCN(C(=O)Nc2cc(F)ccc2F)CC1)c1ccsc1 | 737 s
20 | CCCNc1cc(N2CCC(CCC(=O)NCc3ccccc3Cl)CC2)ncn1 | 718 s
21 | CCn1cc(-c2nc(C(=O)Nc3ccc(C)cc3F)cs2)c2cccnc21 | 983 s
22 | COc1ccc(C(=O)NC2CCN(c3cc(C)cc(C)c3)C2=O)cc1F (stereo not given) | 901 s
23 | CCC(=O)N1CCCc2ccc(NC(=O)c3ccco3)cc21 | 729 s

Row | SMILES | RP-LC retention time
24 | CCOC(=O)C(C#N)C(=N)C1C(=O)OC2CCCCC21 (stereo not given) | 839 s
25 | CCCN1C(=O)C2CCC(=O)N2c2ccc(C(=O)NCCCN3CCOCC3)cc21 (stereo not given) | 570 s
26 | CCC(CC)C(=O)Nc1cccc(C(=O)Nc2nc(-c3ccccc3)cs2)c1 | 1070 s
27 | COCCN1C(=O)CCc2cc(NC(=O)c3ccc(Br)o3)ccc21 | 721 s
28 | CN(C)c1ccc(CNC(=O)c2ccc3ncnc(N4CCCC4)c3c2)cc1 | 556 s
29 | Cc1nn(-c2ccc(F)cc2)c2nc(N3CCCC(C(=O)NCc4ccccc4Cl)C3)sc12 (stereo not given) | 1190 s
30 | COCC(=O)NC(Cc1ccccc1)c1nnc(N2CCN(C)CC2)o1 (stereo not given) | 585 s
31 | CCOC(=O)C1CCN(S(=O)(=O)c2cccc3nsnc23)CC1 | 810 s
32 | COc1ccc(C2=NC3(CCCCC3)N(CC(=O)Nc3cc(OC)cc(OC)c3)C2=O)cc1 | 660 s
33 | OCC1CN(c2ncccn2)CC12CCN(Cc1ccc3[nH]ccc3c1)CC2 (stereo not given) | 577 s
34 | Cn1cc(S(=O)(=O)N2CCCCC2)cc1C(=O)Nc1ccccc1 | 960 s
35 | O=C(O)c1cc(NS(=O)(=O)c2ccccc2)ccc1N1CCCC(CN2CCCC2)C1 (stereo not given) | 927 s
36 | O=C(Cc1c[nH]c2ccccc12)N1CCN(c2cc(-c3cccs3)[nH]n2)CC1 | 756 s
37 | CCOc1ccc(-n2cc(C(=O)OCC(=O)OC)c3ccccc3c2=O)cc1 | 1000 s
38 | Cc1cc(-c2csc(S(=O)(=O)NCCCN3CCN(C)CC3)c2)on1 | 580 s
39 | NC(=O)C1CCN(C(c2cccc(Cl)c2)c2sc3nc(-c4ccco4)nn3c2O)CC1 (stereo not given) | 717 s
40 | O=C(CCCS(=O)(=O)Cc1ccccc1)NCc1ccccc1 | 694 s
41 | CC1CCc2nc3ncn(CC(=O)NCc4cccc(Br)c4)c(=O)c3cc2C1 (stereo not given) | 825 s
42 | C=CCN1C[C@@H](C)N([C@H](c2ccc(C(=O)N(CC)CC)cc2)c2cccc(OC)c2)C[C@@H]1C | 770 s
43 | COc1ccc(C(=O)N2CCC(Oc3cc(N(C)C)ncn3)C2)cc1 (stereo not given) | 650 s
44 | Cc1nc2cc(-c3noc(Cc4ccc(Br)cc4)n3)ccc2n(C)c1=O | 1020 s
45 | CC1(C(=O)NC2CCCC2)CN(S(C)(=O)=O)CC(=O)N1Cc1ccc(Cl)cc1 (stereo not given) | 834 s
